Measured values: PMC6826623 (2019)

Key:
Assay in all cases: UV-Vis absorption titration at 316 nm
[1] = system: hTelo (DNA, G4) AGGGTTAGGGTTAGGGTTAGGG; settings: 50 mM Tris-HCl
[2] = system: c-MYC (DNA, G4) TGGGGAGGGTGGGGAGGGTGGGGAAGG; settings: 100 mM K+, 50 mM Tris-HCl, pH 7.4, parallel G4, per base
[3] = system: 2HY9 (DNA, G4) AAAGGGTTAGGGTTAGGGTTAGGGAA; settings: 100 mM K+, 50 mM Tris-HCl, pH 7.4, hybrid G4, per base

COc1ccc2c(c[n+](C)c3c4cc5c(cc4ccc23)OCO5)c1OC
Kb ([1]; 100 mM K+, pH 7.4, 40% (w/v) PEG 200, parallel G4, per base): (3.5 ± 0.9) × 10^5 M^-1
Kb ([1]; 100 mM Na+, pH 7.4, antiparallel G4, per base): (2.69 ± 0.06) × 10^5 M^-1
Kb [2]: (1.0 ± 0.1) × 10^5 M^-1
Kb [3]: (1.1 ± 0.1) × 10^5 M^-1
